Experimental data: US20090048182A1, “Cosmetic Use of at Least One Natural Ac-N-Ser-Asp-Lys-Pro-Tetrapeptide or One of Its Analogues as Agent for Slowing Down Loss of Hair and/or Stimulating Hair Growth” (CENTRE NATIONAL DE LA RECHERCHE SCIENTIFQUE (CNRS, priority 2005, published 2009)
Residues, ends and D or L forms follow the SMILES beside them.

Columns and labels:
keratin 19 (CK19) = assay: Immunolabeling of keratin 19 (CK19), epithelial stem cell marker, on frozen cuts of isolated hairs; type: cell-based, human
Method: (§1) Study of the stimulating activity of tetrapeptide AcSDKP on the growth of isolated hairs maintained in a state of ex vivo survival. This study was conducted on 66 human hair explants obtained from scalp-plasty.
(§2) Hairs comprised of hair follicles were isolated by micro dissection and individually placed in wells (96-well culture plate) and maintained in survival for 15 days under conventional tissue culturing conditions (37° C., 5% CO2) in Williams medium.
(§3) Tetrapeptide AcSDKP added to the culture medium was tested at three concentrations: 10^−4 M, 10^−7 M and 10^−10 M. Minoxidil® (2,4-diamino 6-piperidinopyrimidine 3-oxide) at a concentration of 10^−5 M was used as a positive control.
(§4) Culture mediums containing the compounds to be tested were renewed every three days.
(§5) On D8 and D15 of treatment, six hairs from each batch (untreated control, Minoxidil®, +AcSDKP 10^−4 M, +AcSDKP 10^−7 M, +AcSDKP 10^−10 M) were removed and prepared for histological study.
(§6) Three explants from each batch were fixed in ordinary Bouin and the three other hairs were frozen and stored at −80° C.
Immunolabeling of keratin 19 (CK19) was carried out on frozen cuts of control hairs and hairs treated with AcSDKP or Minoxidil® in order to evaluate the proportion of undifferentiated primitive cells (or even stem cells) present in the external epithelial sheaths of the hair follicles. […]

[1] = test system: isolated human hair explants (hair follicles); assay: Growth (length) of isolated human hairs maintained in ex vivo survival; type: cell-based
Method: as §1, §2, §3, §4
Hairs were photographed using a microscope and a CCD camera coupled to acquisition software and archiving.
Each hair was measured on D0, D3, D6, D8, D10, D13 and D15 using a LEICA IM1000 measurement module to give measurements in μm.
Each hair was photographed and its length evaluated using software giving values in μm.

collagen IV = assay: Immunolabeling of basal membrane collagen (type IV) on frozen cuts of isolated hairs; type: cell-based, human
Method: as §1, §2, §3, §4, §5, §6
(§7) In addition to measurements of the length of each hair, the general morphology of each hair was analysed and the expression of laminin 5 and collagen IV, two constituents of the basal membrane, was evaluated. Moreover, immunolabeling with anti-Ki67 antibodies (nuclear protein expressed in growing cells) was carried out of cells in mitosis in order to establish the mitotic index of follicle structures.
Immunolabeling of type IV collagen was carried out on frozen cuts of the control hairs and hairs treated with AcSDKP or Minoxidil® in order to quantify this constituent of the basal membrane which separates the dermal compartment from the epithelial compartment.

laminin 5 = assay: Immunolabelling of laminin 5 in isolated hairs; type: cell-based, human
Method: Study of the stimulating activity of tetrapeptide AcSDKP on the growth of isolated hairs maintained in a state of ex vivo survival. This study was conducted on 66 human hair explants obtained from scalp-plasty. Hairs comprised of hair follicles were isolated by micro dissection and individually placed in wells (96-well culture plate) and maintained in survival for 15 days under conventional tissue culturing conditions (37° C., 5% CO2) in Williams medium. Tetrapeptide AcSDKP added to the culture medium was tested at three concentrations: 10^−4 M, 10^−7 M and 10^−10 M. Minoxidil® (2,4-diamino 6-piperidinopyrimidine 3-oxide) at a concentration of 10^−5 M was used as a positive control. Culture mediums containing the compounds to be tested were renewed every three days. On D8 and D15 of treatment, six hairs from each batch (untreated control, Minoxidil®, +AcSDKP 10^−4 M, +AcSDKP 10^−7 M, +AcSDKP 10^−10 M) were removed and prepared for histological study. Three explants from each batch were fixed in ordinary Bouin and the three other hairs were frozen and stored at −80° C. In addition to measurements of the length of each hair, the general morphology of each hair was analysed and the expression of laminin 5 and collagen IV, two constituents of the basal membrane, was evaluated. […]

[2] = test system: cells in mitosis (Ki67) in the epithelial sheath of hair; assay: Cell proliferation: anti-Ki67 immunolabeling of cells in mitosis along the epithelial sheath of isolated hairs; type: cell-based, human
Method: as §1, §2, §3, §4, §5, §6, §7
This study was conducted on cuts of frozen hairs.

[3] = test system: neo-keratinocytes / epithelial sheaths of isolated hairs; assay: General morphology of histological cuts of isolated hairs (Masson Trichromium): neo-keratinocytes, epithelial sheaths; type: cell-based, human
Method: as §1, §2, §3, §4, §5, §6, §7
Analysis of the general morphology of histological cuts stained with Masson Trichromium focusing on the area between the opening of the sebaceous glands and the hair bulb.
Hairs cultured on D0 naturally undergo changes during survival as is observed after an in vivo graft. The restructuring effect of AcSDKP was visualised through the appearance of neo-keratinocytes along the conjunctival sheath which migrate from the bulge and to a lesser extent from the bulb, two regions where stem cells are found. […] This effect leads to clear appearance of neo-keratinocytes along the length of the hair, from the epidermis to the bulb. The structure of the neo-keratinocytes formed in this way is uniform and stratified. It varies as a function of treatment time and AcSDKP concentration. The clearest activity was found on D15 of treatment with AcSDKP at 10^−10 M.

In the case of `CC(=O)N[C@@H](CO)C(=O)N[C@@H](CC(=O)O)C(=O)N[C@@H](CCCCN)C(=O)N1CCC[C@H]1C(=O)O` [AcSDKP, CH3CO-Ser-Asp-Lys-Pro-OH] (Ac-SDKP-OH), the “Increase in CK19 levels” value (keratin 19 (CK19); D8 and D15, AcSDKP 10^−10 M) is reported as “maximal”, the “Expression of CK19 compared to control hair and Minoxidil-treated hair” value (keratin 19 (CK19); hair kept in survival in presence of the tetrapeptide) is reported as “significantly greater” and the “Hair growth (length of hair)” value ([1]; 10^−10 M in culture medium, D15 of treatment) is reported as “significantly stimulates hair growth”. For the same compound, the “Hair growth (length of hair shafts)” value ([1]; higher concentrations (10^−4 M, 10^−7 M), D15) was “no significant difference”, the “Increase in collagen IV levels” value (collagen IV; D8 and D15, AcSDKP 10^−10 M) was “all the more marked” and the “Collagen IV expression in the bulb and median section of hair” value (collagen IV; as of D8, AcSDKP at the three concentrations tested) was “very clear increase in collagen IV”. The “Laminin 5 increase in the median zone of hair” value (laminin 5; D8, AcSDKP 10^−10 M) was “considerably more marked”, the “Expression of laminin 5” value (laminin 5; D15, AcSDKP 10^−7 M) was “higher” and the “Increase in number of cells in mitosis compared to control hair” value ([2]; 10^−10 M, D8 of treatment) was “+300%”. The “Average number of cells in mitosis per mm of hair” value ([2]; AcSDKP 10^−7 M, D8) was 34 per mm of hair, the “Number of cells in mitosis in treated hair compared to control hair” value ([2]; three concentrations tested (10^−4 M, 10^−7 M, 10^−10 M)) was “significantly increases the number of cells in mitosis” and the “Restructuring of the epithelial sheaths” value ([3]; AcSDKP in the culture medium, as of D8 of treatment) was “leads to restructuring of the epithelial sheaths”. For the same compound, the “Adherence of epithelial sheaths to collagen” value ([3]; D8, AcSDKP 10^−4 M) was “more or less detached”, the Neo-keratinocyte sites ([3]; D8, AcSDKP 10^−4 M) was “absent” and the “Adherence of epithelium to the underlying collagen” value ([3]; D8, the two active concentrations (10^−7 M and 10^−10 M)) was “adheres fully”. For the same compound, the Neo-keratinocyte structure thickness ([3]; D15, AcSDKP 10^−4 M, 10^−7 M and especially 10^−10 M) was “increasingly thicker”.

In the case of `Nc1cc(N2CCCCC2)nc(N)[n+]1[O-]` [Minoxidil ®, 2,4-diamino 6-piperidinopyrimidine 3-oxide, reference compound], the “Collagen IV expression” value (collagen IV; hair treated with Minoxidil) is reported as “often less evident”, the “Adherence of epithelial sheaths to collagen” value ([3]; D8, Minoxidil) is reported as “more or less detached” and the Neo-keratinocyte sites ([3]; D8, Minoxidil 10 μM) is reported as “absent”. The “Neo-keratinocyte structure compared to untreated hair” value ([3]; D15, Minoxidil 10^−5 M) was “slightly more structured”.
